Reference: ChEMBL document CHEMBL1125936, “Synthesis and biological evaluation of 4-purinylpyrrolidine nucleosides” (J Med Chem, 1991)

What was measured:
[1] = target: Adenosine deaminase (Bos taurus) (UniProt P56658); assay: Binding affinity towards adenosine deaminase
Tumor Cell line = assay: The compound was tested for inhibitory activity against panel of human tumor cell lines; Range = 0.08-14.02 uM; format: functional, cell-based
[2] = system: Human immunodeficiency virus; assay: The compound was tested for anti-HIV activity; Range = 5.0-15.0 uM; format: functional; conditions: Human immunodeficiency virus 1; read-out: ED50 (the source's name)

Sequence of Adenosine deaminase (Bos taurus) (P56658 whole entry, looked up): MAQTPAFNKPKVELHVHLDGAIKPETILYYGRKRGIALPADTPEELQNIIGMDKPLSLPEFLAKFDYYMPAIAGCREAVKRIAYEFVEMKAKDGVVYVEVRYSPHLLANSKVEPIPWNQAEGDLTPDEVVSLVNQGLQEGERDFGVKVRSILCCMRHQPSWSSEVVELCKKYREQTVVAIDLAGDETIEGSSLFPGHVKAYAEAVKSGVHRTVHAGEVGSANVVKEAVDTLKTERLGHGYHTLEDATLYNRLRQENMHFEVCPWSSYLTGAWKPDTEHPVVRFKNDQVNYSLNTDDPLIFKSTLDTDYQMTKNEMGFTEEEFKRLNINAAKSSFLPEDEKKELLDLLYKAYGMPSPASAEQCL

Nc1ncnc2c1ncn2[C@H]1CN[C@@H](CO)C1
Ki [1]: 85 µM

Cc1cn([C@@H]2C[C@H](CO)N(O)C2)c(=O)[nH]c1=O
IC50 (Tumor Cell line): 0.08 µM

Nc1ncnc2c1ncn2[C@H]1CO[C@@H](CO)C1
EC50 [2]: 5 µM
